Consider ten compounds from US20120238599A1, “HETEROCYCLIC COMPOUNDS AS MEK INHIBITORS” (CHEMIZON, A DIVISION OF OPTOMAGIC CO., LTD., priority 2011, published 2012).

Some results are limits rather than exact numbers.

Experiment [1] deals with T1, Mek1 (Homo sapiens, UniProt Q02750).
T1 construct: purchased Millipore
The experiment can be described thus: Mek1 kinase assay (LANCE), enzymatic activity. Format: biochemical. The conditions noted are these: Mek1 0.25 nM, 50 μM ATP, 2 nM inactive Erk1, 90 min at 23° C. How it is done: A Mek1 kinase assay (LANCE, PerkinElmer) was developed for supporting compound profiling and lead optimization. […] Then the phosphorylated Erk1 was able to phosphorylate ULight™-MBP peptide (PerkinElmer). The phosphorylated peptide was detected by Europium-anti-phospho-MBP (PerkinElmer). […] After quenching the reaction, 2 nM Europium-anti-phospho-MBP was added to the reaction mixture and incubated for 60 min, followed by a detection using EnVision. The IC50 values were derived through a curve fitting using GraFit.
A general note: TR-FRET usually uses a lanthanide donor and a delayed reading to cut background.

The test system of experiment [2] is MEK. The experiment can be described thus: Cell-based mechanism assay in A375 cell line, MEK inhibition detected by reduced ERK phosphorylation (AlphaScreen SureFire). The conditions noted are these: A375 cell line (melanoma), phospho-ERK levels, compounds incubated 1 hour at 37° C. How it is done:
To investigate whether a compound is able to inhibit the activity of MEK in cells, a mechanism-based assay using A375 cell line (melanoma) was developed. In this assay (AlphaScreen, PerkinElmer), inhibition of MEK was detected by reduced ERK phosphorylation. A375 cells were cultured in a tissue culture flask to 80% confluence in DMEM plus 10% fetal bovine serum. Cells were collected and plated onto 96 well culture plates at 3×10^4 cells/well. Plates were incubated overnight at 37° C. with 5% CO2 to allow cells to adhere. Compounds were added to the plates and incubated at 37° C. for 1 hour. After removing the medium, 100 μl of cell lysis buffer were added to each well and 4 μl of cell lysate were transferred into a 384 well white Proxiplate (PerkinElmer). The phospho-ERK levels were determined by following the standard protocol supplied with the PerkinElmer SureFire Phospho-ERK 1/2 Assay Kit®. Plates were read out by EnVision (PerkinElmer). The data were analyzed using GraphPad Prism.
A general note: Alpha assays give light when donor and acceptor beads are brought close together.

Usually IC50 stands for the point on the concentration scale where inhibition reaches its midpoint.

T1 sequence (Q02750 whole entry, species assumed): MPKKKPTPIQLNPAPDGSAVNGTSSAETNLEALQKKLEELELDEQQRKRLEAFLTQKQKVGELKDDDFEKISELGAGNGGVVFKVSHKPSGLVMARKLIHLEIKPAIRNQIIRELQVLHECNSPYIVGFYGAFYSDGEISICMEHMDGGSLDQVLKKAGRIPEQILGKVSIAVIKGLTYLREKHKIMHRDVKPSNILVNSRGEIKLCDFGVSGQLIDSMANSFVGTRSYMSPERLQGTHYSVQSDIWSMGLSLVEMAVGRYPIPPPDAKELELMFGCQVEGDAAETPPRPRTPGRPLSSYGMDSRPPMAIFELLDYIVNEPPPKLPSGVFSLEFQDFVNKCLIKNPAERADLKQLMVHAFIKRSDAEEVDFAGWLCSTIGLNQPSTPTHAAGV

Consider `Cc1nc2c(=O)n(C)c(Nc3ccc(I)cc3F)c(C(=O)NOCCO)c2o1`, for which the IC50 in experiment [1] was below 1000 nM; in experiment [2], below 100 nM.

For `Cn1c(Nc2ccc(I)cc2F)c(C(=O)NOCCO)c2sccc2c1=O`, the IC50 in experiment [1] was below 1000 nM; in experiment [2], below 100 nM.

In the case of `Cn1c(Nc2ccc(I)cc2F)c(C(=O)NOC[C@H](O)CO)c2occc2c1=O`, the IC50 in experiment [1] and in experiment [2] was below 100 nM throughout.

With `Cc1coc2c(C(=O)NOCCO)c(Nc3ccc(I)cc3F)n(C)c(=O)c12`, the IC50 in experiment [1] was below 1000 nM; in experiment [2], below 100 nM.

As for `COc1c(C(=O)NOCCO)c(Nc2ccc(I)cc2F)n(C)c(=O)c1C`, the IC50 in experiment [1] and in experiment [2] was below 100 nM each time.

As for `Cn1c(Nc2ccc(I)cc2F)c(C(=O)NOCCO)c2scnc2c1=O`, the concentration for half-maximal inhibition (IC50) in experiment [1] and in experiment [2] was below 5000 nM in each case.

With `Cc1noc2c(C(=O)NOCCO)c(Nc3ccc(I)cc3F)n(C)c(=O)c12`, the values for the IC50 in experiment [1] and in experiment [2] were below 5000 nM and below 100 nM, respectively.

For the compound `Cn1c(Nc2ccc(I)cc2F)c(C(=O)NCCCO)c2occc2c1=O`, the IC50 in experiment [1] is below 5000 nM; in experiment [2], below 100 nM.

Take `Cn1c(Nc2ccc(I)cc2F)c(C(=O)NOCCO)c2occc2c1=O`: the IC50 in experiment [1] and in experiment [2] was below 100 nM each time.

Regarding `Cn1c(Nc2ccc(I)cc2Cl)c(C(=O)NOCCO)c2occc2c1=O`, the IC50 in experiment [1] and in experiment [2] was below 100 nM each time.
